One compound from patent US20250313808A1, “LIQUID CRYSTAL SCAFFOLDS AND USE THEREOF FOR ORGANOID, SPHEROID, AND 3D CELLAGGREGATE MANUFACTURING” (THE REGENTS OF THE UNIVERSITY OF CALIFORNIA, priority 2022, published 2025) can be followed below.

Structures are written as SMILES.

The assay in a line: Cell growth on CLC versus other substrates (FIG. 13). The following applies: CLC compared to PDMS, agarose or cholesteryl oleyl carbonate substrates. Format: cell-based. How it is done:
Varying ratio of mesogen were weighted to generate a scaffold with desirable phase transition. The mesogens were heated to the melt phase of about 80° C. and then pipetted onto surfaces to create CLC-coated substrates. The substrates were then placed in well plates cell culture media and cells were added to the substrates using traditional cell seeding techniques. The scaffold directed cellular organization once the scaffold was placed in the cell culture incubator with seeded cells on the surface.

As for `CCCCCCCC/C=C\CCCCCCCCOC(=O)O[C@H]1CC[C@@]2(C)C(=CC[C@H]3[C@@H]4CC[C@H]([C@H](C)CCCC(C)C)[C@@]4(C)CC[C@@H]32)C1` [cholesteryl oleyl carbonate], the “cell growth on substrate” value is recorded as “cell growth was only observed on CLC substrate”.
